The assay deals with ALP in NHAC (normal human articular chondrocytes). In words: Alkaline Phosphatase (ALP) activity assay: ALP staining and quantitation in NHACs (prevention of chondrocyte hypertrophy). The format is cell-based. The settings on record: Chondrocyte, 288 h, human IL-1 beta 10 ng/mL, 12 days; for IC50: Fast Blue RR staining, high content imaging; for Emax: read-out: ALP in NHAC (% Efficacy). Here is the method: The compounds of the present invention were evaluated in the Alkaline Phosphatase (ALP) activity assay to determine the ability of the compounds to prevent chondrocyte hypertrophy in normal human articular chondrocytes (NHACs).
Normal human articular chondrocytes (NHACs) were purchased from PromoCell (Heidelberg, Germany) and grown in Chondrocyte Growth Medium (CGM; Lonza, Walkersville, Md.).
NHACs were expanded in Chondrocyte Growth Medium (CGM) from Lonza until they reached a 60-80% confluency. To initiate differentiation, 7,500 cells were plated/well with indicated test compound dose in 384-well Cell Carrier Ultra plates (Perkin Elmer) with DMEM (SH30022—HyClone) containing 10% FBS (35-015-CV—Corning), 1% Pen/Strep antibiotics (SV30010—HyClone), and 1% Normocin (50 mg/mL—InvivoGen). Cells with test compounds were incubated at 37° C., 5% CO2 for 5 hours and then added human IL-1 beta (AF-200-1B—Peprotech) to each well at a final concentration of 10 ng/mL and incubated at 37° C., 5% CO2 for 12 days.
To detect the presence of hypertrophic cells, NHACs were fixed with 4% paraformaldehyde and Hoechst 33342 (Invitrogen) dye for 30 minutes, rinsed in PBS, then stained with Fast Blue RR Salt (F0500—Sigma) with Naphthol AS-MX Phosphate Alkaline Solution, 0.25% (855—Sigma-Aldrich).
The staining was imaged by fluoresecent microscopy, using the 561 nm wavelength, and/or quantified by high content imaging with the ImageXpress Confocal (Molecular Devices, Sunnyvale, CA). Data analyses were performed with a customized multiwavelength cell-scoring application The activity of the compounds of the present invention in the ALP assay is summarized in Table 2.

Here are results for 20 compounds from patent US12365692B2, “6-hydroxy-8-oxatricyclo[3.2.1.02,4]octane-2-carboxamide derivatives for inducing chondrogenesis for treating joint damage” (NOVARTIS AG, priority 2018, dated 2025).

Where only a bound is given, the exact number is not on record here.

Broadly, the IC50 is the concentration needed to halve the response being measured. Read a high IC50 as a need for much substance. Regarding `COc1cc([C@@]23C[C@]2(C(=O)Nc2cc(C(F)(F)F)cc(Cl)n2)[C@H]2C[C@H](O)[C@@H]3O2)ccn1` (racemic) [Example 21, rac-(1R,2R,4S,5R,6S)—N-(6-chloro-4-(trifluoromethyl)pyridin-2-yl)-6-hydroxy-4-(2-methoxypyridin-4-yl)-8-oxatricyclo[3.2.1.02,4]octane-2-carboxamide], the IC50 is over 30 µM and the Emax is 0%.
Taken in the same sequence, the figures for `COc1cc([C@@]23C[C@]2(C(=O)Nc2cc(C(F)(F)F)c(Cl)cn2)[C@H]2C[C@H](O)[C@@H]3O2)ccn1` (racemic) [Example 22, rac-(1R,2R,4S,5R,6S)—N-(5-chloro-4-(trifluoromethyl)pyridin-2-yl)-6-hydroxy-4-(2-methoxypyridin-4-yl)-8-oxatricyclo[3.2.1.02,4]octane-2-carboxamide] were over 30 µM and 27%.
The like results for `COc1cc([C@@]23C[C@]2(C(=O)Nc2cc(C(F)(F)F)cc(C4CC4)n2)[C@H]2C[C@H](O)[C@@H]3O2)ccn1` (racemic) [Example 23, rac-(1R,2R,4S,5R,6S)—N-(6-cyclopropyl-4-(trifluoromethyl)pyridin-2-yl)-6-hydroxy-4-(2-methoxypyridin-4-yl)-8-oxatricyclo[3.2.1.02,4]octane-2-carboxamide] were, in that order, over 30 µM and 4%.
The like results for `COc1cc([C@@]23C[C@]2(C(=O)Nc2cc(C(F)(F)F)cc(C)n2)[C@H]2C[C@H](O)[C@@H]3O2)ccn1` (racemic) [Example 24, rac-(1R,2R,4S,5R,6S)-6-hydroxy-4-(2-methoxypyridin-4-yl)-N-(6-methyl-4-(trifluoromethyl)pyridin-2-yl)-8-oxatricyclo[3.2.1.02,4]octane-2-carboxamide] were, in that order, over 30 µM and 25%.
With `CCOc1cc(C(F)(F)F)cc(NC(=O)[C@]23C[C@@]2(c2ccnc(OC)c2)[C@H]2O[C@@H]3C[C@@H]2O)n1` (racemic) [Example 25, rac-(1R,2R,4S,5R,6S)—N-(6-ethoxy-4-(trifluoromethyl)pyridin-2-yl)-6-hydroxy-4-(2-methoxypyridin-4-yl)-8-oxatricyclo[3.2.1.02,4]octane-2-carboxamide], the IC50 is over 30 µM and the Emax is 0%.
Taken in the same sequence, the figures for `COc1cc([C@@]23C[C@]2(C(=O)Nc2cccc(C(F)(F)F)c2)[C@H]2C[C@H](O)[C@@H]3O2)ccn1` (racemic) [Example 26, rac-(1R,2R,4S,5R,6S)-6-hydroxy-4-(2-methoxypyridin-4-yl)-N-(3-(trifluoromethyl)phenyl)-8-oxatricyclo[3.2.1.02,4]octane-2-carboxamide] were over 30 µM and 5%.
In the case of `COc1cc([C@@]23C[C@]2(C(=O)Nc2cccc(C(F)(F)F)c2C)[C@H]2C[C@H](O)[C@@H]3O2)ccn1` (racemic) [Example 27, rac-(1R,2R,4S,5R,6S)-6-hydroxy-4-(2-methoxypyridin-4-yl)-N-(2-methyl-3-(trifluoromethyl)phenyl)-8-oxatricyclo[3.2.1.02,4]octane-2-carboxamide], the IC50 was over 30 µM and the Emax is 0%.
The like results for `COc1cc([C@@]23C[C@]2(C(=O)Nc2ccc(C)c(C(F)(F)F)c2)[C@H]2C[C@H](O)[C@@H]3O2)ccn1` (racemic) [Example 28, rac-(1R,2R,4S,5R,6S)-6-hydroxy-4-(2-methoxypyridin-4-yl)-N-(4-methyl-3-(trifluoromethyl)phenyl)-8-oxatricyclo[3.2.1.02,4]octane-2-carboxamide] were, in that order, over 30 µM and 13%.
Taken in the same sequence, the figures for `COc1cc([C@@]23C[C@]2(C(=O)Nc2cc(C)cc(C(F)(F)F)c2)[C@H]2C[C@H](O)[C@@H]3O2)ccn1` (racemic) [Example 29, rac-(1R,2R,4S,5R,6S)-6-hydroxy-4-(2-methoxypyridin-4-yl)-N-(3-methyl-5-(trifluoromethyl)phenyl)-8-oxatricyclo[3.2.1.02,4]octane-2-carboxamide] were 10 µM and 74%.
The like results for `COc1cc([C@@]23C[C@]2(C(=O)Nc2cc(C(F)(F)F)ccc2C)[C@H]2C[C@H](O)[C@@H]3O2)ccn1` (racemic) [Example 30, rac-(1R,2R,4S,5R,6S)-6-hydroxy-4-(2-methoxypyridin-4-yl)-N-(2-methyl-5-(trifluoromethyl)phenyl)-8-oxatricyclo[3.2.1.02,4]octane-2-carboxamide] were, in that order, over 30 µM and 27%.
For the compound `COc1cc([C@@]23C[C@]2(C(=O)Nc2cccc(C(F)(F)F)c2F)[C@H]2C[C@H](O)[C@@H]3O2)ccn1` (racemic) [Example 31, rac-(1R,2R,4S,5R,6S)—N-(2-fluoro-3-(trifluoromethyl)phenyl)-6-hydroxy-4-(2-methoxypyridin-4-yl)-8-oxatricyclo[3.2.1.02,4]octane-2-carboxamide], the IC50 is over 30 µM and the Emax worked out at 15%.
As to `COc1cc([C@@]23C[C@]2(C(=O)Nc2ccc(F)c(C(F)(F)F)c2)[C@H]2C[C@H](O)[C@@H]3O2)ccn1` (racemic) [Example 32, rac-(1R,2R,4S,5R,6S)—N-(4-fluoro-3-(trifluoromethyl)phenyl)-6-hydroxy-4-(2-methoxypyridin-4-yl)-8-oxatricyclo[3.2.1.02,4]octane-2-carboxamide], the IC50 was over 30 µM and the Emax worked out at 4%.
Taken in the same sequence, the figures for `COc1cc([C@@]23C[C@]2(C(=O)Nc2cc(C(F)(F)F)ccc2F)[C@H]2C[C@H](O)[C@@H]3O2)ccn1` (racemic) [Example 33, rac-(1R,2R,4S,5R,6S)—N-(2-fluoro-5-(trifluoromethyl)phenyl)-6-hydroxy-4-(2-methoxypyridin-4-yl)-8-oxatricyclo[3.2.1.02,4]octane-2-carboxamide] were over 30 µM and 12%.
The like results for `COc1cc([C@@]23C[C@]2(C(=O)Nc2ccc(OC)c(C(F)(F)F)c2)[C@H]2C[C@H](O)[C@@H]3O2)ccn1` (racemic) [Example 34, rac-(1R,2R,4S,5R,6S)-6-hydroxy-N-(4-methoxy-3-(trifluoromethyl)phenyl)-4-(2-methoxypyridin-4-yl)-8-oxatricyclo[3.2.1.02,4]octane-2-carboxamide] were, in that order, over 30 µM and 0%.
The like results for `COc1cc(NC(=O)[C@]23C[C@@]2(c2ccnc(OC)c2)[C@H]2O[C@@H]3C[C@@H]2O)cc(C(F)(F)F)c1` (racemic) [Example 35, rac-(1R,2R,4S,5R,6S)-6-hydroxy-N-(3-methoxy-5-(trifluoromethyl)phenyl)-4-(2-methoxypyridin-4-yl)-8-oxatricyclo[3.2.1.02,4]octane-2-carboxamide] were, in that order, over 30 µM and 0%.
Turning to `COc1cc([C@@]23C[C@]2(C(=O)Nc2cc(C(F)(F)F)ccc2OC)[C@H]2C[C@H](O)[C@@H]3O2)ccn1` (racemic) [Example 36, rac-(1R,2R,4S,5R,6S)-6-hydroxy-N-(2-methoxy-5-(trifluoromethyl)phenyl)-4-(2-methoxypyridin-4-yl)-8-oxatricyclo[3.2.1.02,4]octane-2-carboxamide], the IC50 was found to be 18 µM and the Emax was found to be 65%.
Taken in the same sequence, the figures for `COc1cc([C@@]23C[C@]2(C(=O)Nc2cc(C(F)(F)F)cc(C(F)(F)F)c2)[C@H]2C[C@H](O)[C@@H]3O2)ccn1` (racemic) [Example 37, rac-(1R,2R,4S,5R,6S)—N-(3,5-bis(trifluoromethyl)phenyl)-6-hydroxy-4-(2-methoxypyridin-4-yl)-8-oxatricyclo[3.2.1.02,4]octane-2-carboxamide] were over 30 µM and 0%.
Taken in the same sequence, the figures for `COc1cc([C@@]23C[C@]2(C(=O)Nc2ccc(C#N)c(C(F)(F)F)c2)[C@H]2C[C@H](O)[C@@H]3O2)ccn1` (racemic) [Example 38, rac-(1R,2R,4S,5R,6S)—N-(4-cyano-3-(trifluoromethyl)phenyl)-6-hydroxy-4-(2-methoxypyridin-4-yl)-8-oxatricyclo[3.2.1.02,4]octane-2-carboxamide] were 24 µM and 71%.
Taken in the same sequence, the figures for `COc1cc([C@@]23C[C@]2(C(=O)Nc2cc(C(F)(F)F)ccc2C#N)[C@H]2C[C@H](O)[C@@H]3O2)ccn1` (racemic) [Example 39, rac-(1R,2R,4S,5R,6S)—N-(2-cyano-5-(trifluoromethyl)phenyl)-6-hydroxy-4-(2-methoxypyridin-4-yl)-8-oxatricyclo[3.2.1.02,4]octane-2-carboxamide] were 0.081 µM and 92%.
On to `Cn1cc([C@@]23C[C@]2(C(=O)Nc2ccc(C(F)(F)F)c(Cl)c2)[C@H]2C[C@H](O)[C@@H]3O2)c(C(F)(F)F)n1` (racemic) [Example 40, rac-(1R,2R,4S,5R,6S)—N-(3-chloro-4-(trifluoromethyl)phenyl)-6-hydroxy-4-(1-methyl-3-(trifluoromethyl)-1H-pyrazol-4-yl)-8-oxatricyclo[3.2.1.02,4]octane-2-carboxamide], for which the IC50 was 9.5 µM and the Emax is 91%.
